Molecular target: T1, p53 Y220C (Homo sapiens, UniProt P04637, Y220C)
T1 construct: The recombinant protein was a truncation mutant containing only amino acids 94-312 of p53; made in house; host or cells: E. coli
Assay: In vitro DNA binding activity assay (HTRF / TR-FRET): stabilization of p53 Y220C and increase of its DNA binding activity
Assay type: biochemical
Conditions: recombinant His-tagged p53 Y220C DNA binding domain (aa 94-312), biotin-labeled consensus DNA, incubated at 27° C. or 29° C. for 60 min
Summary of the method: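 Homogeneous time-resolved fluorescence with E. coli-derived p53 Y220C and biotinylated consensus DNA. Room-temperature incubations of 15 and 20 min precede reading. SC150 denotes the compound concentration required for 50% increased DNA binding.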

T1 sequence (P04637 94-312, change not shown): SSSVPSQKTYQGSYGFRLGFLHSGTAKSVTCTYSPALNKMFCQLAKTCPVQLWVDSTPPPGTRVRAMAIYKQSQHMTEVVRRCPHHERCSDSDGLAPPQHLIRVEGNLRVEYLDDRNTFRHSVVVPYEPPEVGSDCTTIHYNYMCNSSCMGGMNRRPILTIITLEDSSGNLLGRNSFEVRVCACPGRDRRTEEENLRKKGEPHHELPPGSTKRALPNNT

SC150 (concentration of the compound required to increase the DNA binding activity by 50%), + (+ = 0 μM ≤ SC150 < 0.05 μM):
CS(=O)(=O)c1ccc(NCC#Cc2cc3c(NC4CCC(N5CCOCC5)CC4)cccc3n2CC(F)(F)F)c(OCF)c1 [Compound 340A, 2-(3-{[2-(fluoro-methoxy)-4-methane-sulfonylphenyl]amino}prop-1-yn-1-yl)-N-[(1R,4R)-4-(morpholin-4-yl)cyclohexyl]-1-(2,2,2-trifluoroethyl)-1H-indol-4-amine]
N#CCOc1cc(S(N)(=O)=O)ccc1NCC#Cc1cc2c(N[C@H]3CC[C@H](N4CCOCC4)CC3)cccc2n1CC(F)(F)F [Compound 342A, 3-(cyanomethoxy)-4-{[3-(4-{[(1R,4R)-4-(morpholin-4-yl)cyclohexyl]amino}-1-(2,2,2-trifluoroethyl)-1H-indol-2-yl)prop-2-yn-1-yl]amino}benzene-1-sulfonamide]
NS(=O)(=O)c1ccc(NCC#Cc2cc3c(N[C@H]4CC[C@H](N5CCOCC5)CC4)cccc3n2CC(F)(F)F)c(OCF)c1 [Compound 344A, 3-(fluoromethoxy)-4-{[3-(4-{[(1R,4R)-4-(morpholin-4-yl)cyclohexyl]amino}-1-(2,2,2-trifluoroethyl)-1H-indol-2-yl)prop-2-yn-1-yl]amino}benzene-1-sulfonamide]
CCOc1cc(S(C)(=O)=O)ccc1NCC#Cc1cc2c(N[C@H]3CC[C@H](N4CCOCC4)CC3)cccc2n1CC(F)(F)F [Compound 346A, 2-(3-((2-ethoxy-4-(methylsulfonyl)phenyl)amino)prop-1-yn-1-yl)-N-((1R,4R)-4-morpholinocyclohexyl)-1-(2,2,2-trifluoroethyl)-1H-indol-4-amine]
COc1cc(S(C)(=O)=O)ccc1NCC#Cc1cc2c(N[C@H]3CC[C@H](N4CCCC(OC)C4)CC3)cccc2n1CC(F)(F)F (stereo partly drawn) [Compound 348A, 2-{3-[(4-methane-sulfonyl-2-methoxy-phenyl)amino]prop-1-yn-1-yl}-N-[(1R,4R)-4-(3-methoxypiperidin-1-yl)cyclohexyl]-1-(2,2,2-trifluoroethyl)-1H-indol-4-amine]
COc1cc(S(C)(=O)=O)ccc1NCC#Cc1cc2c(N[C@H]3CC[C@H](N4CCC(OC)CC4)CC3)cccc2n1CC(F)(F)F [Compound 350A, 2-{3-[(4-methane-sulfonyl-2-methoxy-phenyl)amino]prop-1-yn-1-yl}-N-[(1R,4R)-4-(4-methoxypiperidin-1-yl)cyclohexyl]-1-(2,2,2-trifluoroethyl)-1H-indol-4-amine]
CNC(=O)c1ccc(NCC#Cc2cc3c(N[C@H]4CC[C@H](N5CCC(OC)CC5)CC4)cccc3n2CC(F)(F)F)c(OC)c1 [Compound 352A, 3-methoxy-N-methyl-4-{[3-(4-{[(1R,4R)-4-(4-methoxypiperidin-1-yl)cyclohexyl]amino}-1-(2,2,2-trifluoroethyl)-1H-indol-2-yl)prop-2-yn-1-yl]amino}benzamide]
COc1cc(S(N)(=O)=O)ccc1NCC#Cc1cc2c(N[C@H]3CC[C@H](N4CCC(OC)CC4)CC3)cccc2n1CC(F)(F)F [Compound 354A, 3-methoxy-4-{[3-(4-{[(1R,4R)-4-(4-methoxypiperidin-1-yl)cyclohexyl]amino}-1-(2,2,2-trifluoroethyl)-1H-indol-2-yl)prop-2-yn-1-yl]amino}benzene-1-sulfonamide]
CNC(=O)c1ccc(NCC#Cc2cc3c(N[C@H]4CC[C@H](N5CCCC(OC)C5)CC4)cccc3n2CC(F)(F)F)c(OC)c1 (stereo partly drawn) [Compound 356A, 3-methoxy-N-methyl-4-{[3-(4-{[(1R,4R)-4-(3-methoxypiperidin-1-yl)cyclohexyl]amino}-1-(2,2,2-trifluoroethyl)-1H-indol-2-yl)prop-2-yn-1-yl]amino} benzamide]
COc1cc(S(N)(=O)=O)ccc1NCC#Cc1cc2c(N[C@H]3CC[C@H](N4CCCC(OC)C4)CC3)cccc2n1CC(F)(F)F (stereo partly drawn) [Compound 358A, 3-methoxy-4-{[3-(4-{[(1R,4R)-4-(3-methoxypiperidin-1-yl)cyclohexyl]amino}-1-(2,2,2-trifluoroethyl)-1H-indol-2-yl)prop-2-yn-1-yl]amino}benzene-1-sulfonamide]
COc1cc(S(C)(=O)=O)ccc1NCC#Cc1cc2c(N[C@H]3CC[C@H](N4CCS(=O)(=O)CC4)CC3)cccc2n1CC(F)(F)F [Compound 362A, 4-[(1R,4R)-4-[(2-{3-[(4-methanesulfonyl-2-methoxyphenyl)amino]prop-1-yn-1-yl}-1-(2,2,2-trifluoroethyl)-1H-indol-4-yl)amino]cyclohexyl]-1λ^6-thiomorpholine-1,1-dione]
COc1cc(S(C)(=O)=O)ccc1NCC#Cc1cc2c(N[C@H]3CC[C@H](N4CC[S+]([O-])CC4)CC3)cccc2n1CC(F)(F)F [Compound 364A, 4-[(1R,4R)-4-[(2-{3-[(4-methanesulfonyl-2-methoxyphenyl)amino]prop-1-yn-1-yl}-1-(2,2,2-trifluoroethyl)-1H-indol-4-yl)amino]cyclohexyl]-1λ^4-thiomorpholin-1-one]
CNC(=O)c1ccc(NCC#Cc2cc3c(N[C@H]4CC[C@H](N5CC[S+]([O-])CC5)CC4)cccc3n2CC(F)(F)F)c(OC)c1 [Compound 369A, 3-methoxy-N-methyl-4-{[3-(4-{[(1R,4R)-4-(1-oxo-1λ^4-thiomorpholin-4-yl)cyclohexyl]amino}-1-(2,2,2-trifluoroethyl)-1H-indol-2-yl)prop-2-yn-1-yl]amino}benzamide]
COc1cc(S(N)(=O)=O)ccc1NCC#Cc1cc2c(N[C@H]3CC[C@H](N4CC[S+]([O-])CC4)CC3)cccc2n1CC(F)(F)F [Compound 370A, 3-methoxy-4-{[3-(4-{[(1R,4R)-4-(1-oxo-1λ^4-thiomorpholin-4-yl)cyclohexyl]amino}-1-(2,2,2-trifluoro-ethyl)-1H-indol-2-yl)prop-2-yn-1-yl]amino} benzene-1-sulfonamide]
COc1cc(S(N)(=O)=O)ccc1NCC#Cc1cc2c(N[C@H]3CC[C@H](N4CCS(=O)(=O)CC4)CC3)cccc2n1CC(F)(F)F [Compound 372A, 3-methoxy-4-{[3-(4-{[(1R,4R)-4-(1,1-dioxo-1λ^6-thiomorpholin-4-yl)cyclohexyl]amino}-1-(2,2,2-trifluoroethyl)-1H-indol-2-yl)prop-2-yn-1-yl]amino}benzene-1-sulfonamide]
COc1cc(S(C)(=O)=O)ccc1NCC#Cc1cc2c(N[C@H]3CC[C@@H](N4CCC5(CC4)COC5)CC3)cccc2n1CC(F)(F)F [Compound 374A, 2-{3-[(4-methane-sulfonyl-2-methoxy-phenyl)amino]prop-1-yn-1-yl}-N-[(1S,4S)-4-{2-oxa-7-azaspiro[3.5]nonan-7-yl}cyclohexyl]-1-(2,2,2-trifluoroethyl)-1H-indol-4-amine]
CNC(=O)c1ccc(NCC#Cc2cc3c(N[C@H]4CC[C@H](N5CCC6(CC5)COC6)CC4)cccc3n2CC(F)(F)F)c(OC)c1 [Compound 375A, 3-methoxy-N-methyl-4-{[3-(4-{[(1R,4R)-4-{2-oxa-7-azaspiro[3.5]nonan-7-yl}cyclohexyl]amino}-1-(2,2,2-trifluoroethyl)-1H-indol-2-yl)prop-2-yn-1-yl]amino}benzamide]
CNC(=O)c1ccc(NCC#Cc2cc3c(N[C@H]4CC[C@@H](N5CCC6(CC5)COC6)CC4)cccc3n2CC(F)(F)F)c(OC)c1 [Compound 376A, 3-methoxy-N-methyl-4-{[3-(4-{[(1S,4S)-4-{2-oxa-7-azaspiro[3.5]nonan-7-yl}cyclohexyl]amino}-1-(2,2,2-trifluoroethyl)-1H-indol-2-yl)prop-2-yn-1-yl]amino}benzamide]
COc1cc(S(N)(=O)=O)ccc1NCC#Cc1cc2c(N[C@H]3CC[C@H](N4CCC5(CC4)COC5)CC3)cccc2n1CC(F)(F)F [Compound 377A, 3-methoxy-4-{[3-(4-{[(1R,4R)-4-{2-oxa-7-azaspiro[3.5]nonan-7-yl}cyclohexyl]amino}-1-(2,2,2-trifluoroethyl)-1H-indol-2-yl)prop-2-yn-1-yl]amino}benzene-1-sulfonamide]
N#CCOc1cc(S(N)(=O)=O)ccc1NCC#Cc1cc2c(N[C@H]3CC[C@H](N4CCC5(CC4)COC5)CC3)cccc2n1CC(F)(F)F [Compound 379A, 3-(cyanomethoxy)-4-{[3-(4-{[(1R,4R)-4-{2-oxa-7-azaspiro[3.5]nonan-7-yl}cyclohexyl]amino}-1-(2,2,2-trifluoroethyl)-1H-indol-2-yl)prop-2-yn-1-yl]amino}benzene-1-sulfonamide]

Reference: US12428406B2 (PMV Pharmaceuticals, Inc., priority 2019, dated 2025)
